In patent publication US11786534B2 (TAIHO PHARMACEUTICAL CO., LTD., priority 2019, dated 2023):
Read-outs that look alike come from different tables or passages of the source.

Tests used:
human EGFR (WT) = target: T1, human EGFR (WT) (Homo sapiens, UniProt P00533); assay: Inhibitory activity against EGFR (WT) kinase; format: biochemical
T1 construct: purchased Carna Biosciences Inc., Japan
Procedure, shortened: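 Purified recombinant human wild-type EGFR kinase, with ATP at 1.5 μM final. Compound inhibition of kinase activity read out and fitted to give IC50 (nM).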

[1] = target: Ba/F3-EGFR (d746-750/T790M/C797S) (Homo sapiens, UniProt P00533, DEL746-750/T790M/C797S, cells depend on it); assay: Growth inhibition of cell line expressing EGFR (d746-750/T790M/C797S); format: cell-based, mouse; settings: read-out: BaF3_EGFR (d746-750/T790M/C797S) IC50 value
Sequence of Ba/F3-EGFR (d746-750/T790M/C797S) (P00533 with tags, fused parts or gaps DEL746-750/T790M/C797S): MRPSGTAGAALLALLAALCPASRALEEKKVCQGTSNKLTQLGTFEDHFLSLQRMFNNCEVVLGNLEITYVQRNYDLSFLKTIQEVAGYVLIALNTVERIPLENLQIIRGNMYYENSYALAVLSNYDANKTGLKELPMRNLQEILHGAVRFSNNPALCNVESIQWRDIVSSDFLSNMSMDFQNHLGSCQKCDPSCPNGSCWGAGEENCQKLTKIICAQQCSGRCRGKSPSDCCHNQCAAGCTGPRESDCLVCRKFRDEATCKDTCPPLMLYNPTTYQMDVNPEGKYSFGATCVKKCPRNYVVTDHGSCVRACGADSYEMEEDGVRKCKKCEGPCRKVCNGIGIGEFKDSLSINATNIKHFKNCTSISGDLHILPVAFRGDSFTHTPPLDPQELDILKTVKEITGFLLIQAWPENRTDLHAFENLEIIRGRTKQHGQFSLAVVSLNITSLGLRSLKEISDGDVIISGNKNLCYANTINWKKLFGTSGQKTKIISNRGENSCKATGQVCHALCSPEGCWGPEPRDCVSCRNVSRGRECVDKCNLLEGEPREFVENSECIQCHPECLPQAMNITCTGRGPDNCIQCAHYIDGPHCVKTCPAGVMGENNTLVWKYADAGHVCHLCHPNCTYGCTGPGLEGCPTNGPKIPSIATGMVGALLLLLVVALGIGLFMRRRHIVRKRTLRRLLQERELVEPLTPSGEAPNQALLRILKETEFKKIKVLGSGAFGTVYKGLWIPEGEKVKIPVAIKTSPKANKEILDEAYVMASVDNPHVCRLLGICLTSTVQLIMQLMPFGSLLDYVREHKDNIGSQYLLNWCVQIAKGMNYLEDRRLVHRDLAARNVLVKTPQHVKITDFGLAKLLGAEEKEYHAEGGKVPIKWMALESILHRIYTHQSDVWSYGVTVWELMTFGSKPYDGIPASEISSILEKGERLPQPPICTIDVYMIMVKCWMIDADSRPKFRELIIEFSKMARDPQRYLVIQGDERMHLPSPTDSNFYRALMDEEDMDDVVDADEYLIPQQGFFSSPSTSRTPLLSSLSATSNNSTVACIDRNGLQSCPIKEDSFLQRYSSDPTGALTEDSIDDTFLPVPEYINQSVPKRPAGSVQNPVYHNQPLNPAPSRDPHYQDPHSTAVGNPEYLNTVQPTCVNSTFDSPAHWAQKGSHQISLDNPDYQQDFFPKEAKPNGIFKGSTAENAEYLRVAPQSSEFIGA
Description: Test for inhibitory activity against the growth of cell lines expressing wild-type and mutated EGFRs (in vitro)
(1) Mouse cell line Ba/F3-EGFR (d746-750/T790M/C797S) transfected with and stably expressing EGFR (d746-750/T790M/C797S), mouse cell Ba/F3-EGFR (L858R/T790M/C797S) transfected with and stably expressing EGFR (L858R/T790M/C797S), and mouse cell line Ba/F3-EGFR (WT) transfected with and stably expressing wild-type EGFR were each suspended in RPMI-1640 cell culture medium (RPMI-1640, 10% FBS, 100 unit/ml penicillin, 0.1 mg/ml streptomycin). In the case of the mouse cell line Ba/F3-EGFR (WT), RPMI-1640 cell culture medium containing EGF at a final concentration of 50 ng/ml was used to suspend this cell line. It should be noted that the mouse cell line Ba/F3-EGFR (d746-750/T790M/C797S) transfected with and stably expressing EGFR (d746-750/T790M/C797S), the mouse cell line Ba/F3-EGFR (L858R/T790M/C797S) transfected with and stably expressing EGFR (L858R/T790M/C797S) and the mouse cell line Ba/F3-EGFR (WT) transfected with and stably expressing wild-type EGFR were prepared by using nucleotide sequences encoding the proteins of SEQ ID NOs: 1 and 2 in accordance with Test Example 1 in WO2018/079310, These cell suspensions were seeded in wells of 96-well flat -bottomed plates. The compounds of the present invention were dissolved in DMSO, and serial dilutions of these test compounds were prepared with DMSO (1000-fold of the final concentration). Each test compound solution in DMSO or DMSO alone was diluted with RPMI-1640 cell culture medium for each cell line, and this dilution was added to wells of the cell culture plate such that the final concentration of DMSO was 0.1%, followed by culture at 37° C. for 3 days in a 5% carbon dioxide gas-containing incubator. Before and after addition of each test compound solution in DMSO, the number of cells was counted using the CellTiter-Glo® system (Promega) on the basis of the protocol recommended by Promega.
In each cell line, the rate of cell growth inhibition was calculated according to the equation shown below in wells to which each test compound was added at different concentrations. Moreover, the inhibition rate at each concentration was plotted for each test compound, and the concentration of each test compound required to give 50% cell survival rate, i.e., IC50 (nM) was determined by curve fitting software XLfit (IDBS).
Cell survival rate (%)=T/C×100
T: emission intensity in a well cultured for 3 days after addition of a test compound solution
C: emission intensity in a well cultured for 3 days after addition of DMSO
In accordance with the same procedures as shown in Test Example 2, the compounds of the present invention were tested for their inhibitory activity against the growth of the cell hoes expressing wild-type and mutated EGFRs.

[2] = Test Example 1, Table 6, ATP 1.5 μM
[3] = Test Example 4, Table 13, same procedures as Test Example 2
[4] = Test Example 2, Table 7, culture 3 days, CellTiter-Glo

T1 sequence (P00533 25-1210): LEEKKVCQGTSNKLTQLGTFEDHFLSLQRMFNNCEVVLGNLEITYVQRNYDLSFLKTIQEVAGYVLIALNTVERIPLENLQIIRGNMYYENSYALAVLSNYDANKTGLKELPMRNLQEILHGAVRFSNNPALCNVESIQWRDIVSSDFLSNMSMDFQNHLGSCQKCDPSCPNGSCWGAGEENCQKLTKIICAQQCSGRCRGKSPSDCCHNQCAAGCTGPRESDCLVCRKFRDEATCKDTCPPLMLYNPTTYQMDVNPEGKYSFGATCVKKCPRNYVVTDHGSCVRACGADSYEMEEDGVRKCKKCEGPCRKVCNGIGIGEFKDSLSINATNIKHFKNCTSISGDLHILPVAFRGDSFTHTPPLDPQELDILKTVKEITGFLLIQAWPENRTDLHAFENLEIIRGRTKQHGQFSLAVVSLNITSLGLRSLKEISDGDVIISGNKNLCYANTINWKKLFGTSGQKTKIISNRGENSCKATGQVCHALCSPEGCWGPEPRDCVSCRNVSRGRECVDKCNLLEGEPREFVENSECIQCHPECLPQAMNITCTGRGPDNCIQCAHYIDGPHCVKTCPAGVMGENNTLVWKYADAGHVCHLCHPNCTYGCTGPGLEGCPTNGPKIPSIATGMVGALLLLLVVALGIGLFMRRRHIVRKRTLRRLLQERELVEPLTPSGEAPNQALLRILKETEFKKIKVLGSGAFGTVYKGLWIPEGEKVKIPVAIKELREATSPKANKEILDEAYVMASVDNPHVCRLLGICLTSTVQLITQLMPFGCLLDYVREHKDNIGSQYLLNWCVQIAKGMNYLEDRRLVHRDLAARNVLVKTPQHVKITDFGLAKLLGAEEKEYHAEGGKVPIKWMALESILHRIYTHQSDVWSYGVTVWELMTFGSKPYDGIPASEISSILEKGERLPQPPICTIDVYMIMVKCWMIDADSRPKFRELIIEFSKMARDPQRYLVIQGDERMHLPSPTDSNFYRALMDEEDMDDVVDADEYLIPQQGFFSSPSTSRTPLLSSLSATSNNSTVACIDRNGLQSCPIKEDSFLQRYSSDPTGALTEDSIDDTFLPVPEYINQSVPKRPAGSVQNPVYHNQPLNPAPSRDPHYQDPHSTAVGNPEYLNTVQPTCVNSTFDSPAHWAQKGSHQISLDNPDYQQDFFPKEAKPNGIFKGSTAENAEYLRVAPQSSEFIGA

| IC50 (human EGFR (WT); [2]) [nM] | GI50 [1, 3] [nM] | GI50 [1, 4] [nM] | IC50 (human EGFR (WT); Test Example 3, Table 12; same procedures as 5) in Test Example 1) [nM] | Compound |
| --- | --- | --- | --- | --- |
| 0.75 | – | 24 | – | C#Cc1c(-c2cnc3ccccc3c2)c2c(N)ncnc2n1C12CCC(NC(=O)c3cnccn3)(CC1)C2 [Example 48] |
| 2.1 | 102 | – | – | C#Cc1c(-c2cnc3ccccc3c2)c2c(N)ncnc2n1C12CCC(NC(=O)c3ccco3)(CC1)C2 [Example 41] |
| 1.9 | – | 42 | – | C#Cc1c(-c2cnc3ccccc3c2)c2c(N)ncnc2n1C12CCC(NC(=O)c3cccnc3)(CC1)C2 [Example 45] |
| 0.45 | – | 56 | – | C#Cc1c(-c2cnc3ccccc3c2)c2c(N)ncnc2n1C12CCC(NC(=O)c3ccnnc3)(CC1)C2 [Example 3, N-(4-(4-Amino-6-ethynyl-5-(quinolin-3-yl)-7H-pyrrolo[2,3-d]pyrimidin-7-yl)bicyclo-[2.2.1]heptan-1-yl)pyridazine-4-carboxamide] |
| 1.4 | 124 | – | – | C#Cc1c(-c2cnc3ccccc3c2)c2c(N)ncnc2n1C12CCC(NC(=O)c3cnns3)(CC1)C2 [Example 18, N-(4-(4-Amino-6-ethynyl-5-(quinolin-3-yl)-7H-pyrrolo[2,3-d]pyrimidin-7-yl)bicyclo-[2.2.1]heptan-1-yl)-1,2,3-thiadiazole-5-carboxamide] |
| 0.86 | – | 19 | – | C#Cc1c(-c2cnc3ccccc3c2)c2c(N)ncnc2n1C12CCC(NC(=O)c3cccnn3)(CC1)C2 [Example 49] |
| 0.73 | – | 34 | – | C#Cc1c(-c2cnc3ccccc3c2)c2c(N)ncnc2n1C12CCC(NC(=O)c3ccnn3C)(CC1)C2 [Example 24, N-(4-(4-Amino-6-ethynyl-5-(quinolin-3-yl)-7H-pyrrolo[2,3-d]pyrimidin-7-yl)bicyclo-[2.2.1]heptan-1-yl)-1-methyl-1H-pyrazole-5-carboxamide] |
| 0.8 | 30 | – | – | C#Cc1c(-c2cnc3ccccc3c2)c2c(N)ncnc2n1C12CCC(NC(=O)c3ccno3)(CC1)C2 [Example 44] |
| 1.7 | – | 57 | – | C#Cc1c(-c2cnc3ccccc3c2)c2c(N)ncnc2n1C12CCC(NC(=O)c3ccncc3)(CC1)C2 [Example 43] |

The next lines start with the compound.

| Compound | IC50 (human EGFR (WT); [2]) [nM] | GI50 [1, 3] [nM] | GI50 [1, 4] [nM] | IC50 (human EGFR (WT); Test Example 3, Table 12; same procedures as 5) in Test Example 1) [nM] |
| --- | --- | --- | --- | --- |
| C#Cc1c(-c2cnc3ccccc3c2)c2c(N)ncnc2n1C12CCC(NC(=O)c3ccc4ncnn4c3)(CC1)C2 [Example 16, N-(4-(4-Amino-6-ethynyl-5-(quinolin-3-yl)-7H-pyrrolo[2,3-d]pyrimidin-7-yl)bicyclo-[2.2.1]heptan-1-yl)-[1.2.4]triazolo[1,5-a]pyrimidin-6-carboxamide] | 0.53 | 32 | – | – |
| C#Cc1c(-c2cnc3ccccc3c2)c2c(N)ncnc2n1C12CCC(NC(=O)c3cnc(C)cn3)(CC1)C2 [Example 37, N-(4-(4-Amino-6-ethynyl-5-(quinolin-3-yl)-7H-pyrrolo[2,3-d]pyrimidin-7-yl)-bicyclo-[2.2.1]heptan-1-yl)-5-methylpyrazine-2-carboxamide] | 0.92 | – | 21 | – |
| C#Cc1c(-c2cnc3ccccc3c2)c2c(N)ncnc2n1C12CCC(NC(=O)c3cncc(F)c3)(CC1)C2 [Example 35, N-(4-(4-Amino-6-ethynyl-5-(quinolin-3-yl)-7H-pyrrolo[2,3-d]pyrimidin-7-yl)-bicyclo-[2.2.1]heptan-1-yl)-5-fluoronicotinamide] | 1.3 | 44 | – | – |
| C#Cc1c(-c2cnc3ccccc3c2)c2c(N)ncnc2n1C12CCC(CNC(=O)c3ccnn3C)(CC1)C2 [Example 13, N-((4-(4-Amino-6-ethynyl-5-(quinolin-3-yl)-7H-pyrrolo[2,3-d]pyrimidin-7-yl)bicyclo-[2.2.1]heptan-1-yl)methyl)-1-methyl-1H-pyrazole-5-carboxamide] | 0.61 | – | 239 | – |
| C#Cc1c(-c2cnc3ccccc3c2)c2c(N)ncnc2n1C12CCC(NC(=O)C(F)F)(CC1)C2 [Example 27, N-(4-(4-Amino-6-ethynyl-5-(quinolin-3-yl)-7H-pyrrolo[2,3-d]pyrimidin-7-yl)bicyclo-[2.2.1]heptan-1-yl)-2,2-difluoroacetamide] | 2.4 | 110 | – | – |
| C#Cc1c(-c2cnc3ccccc3c2)c2c(N)ncnc2n1C12CCC(NC(C)=O)(CC1)C2 [Example 39, N-(4-(4-Amino-6-ethynyl-5-(quinolin-3-yl)-7H-pyrrolo[2,3-d]pyrimidin-7-yl)-bicyclo-[2.2.1]heptan-1-yl)acetamide] | 1.5 | 98 | – | – |
| C#Cc1c(-c2cnc3ccccc3c2)c2c(N)ncnc2n1C12CCC(NC(=O)c3nccs3)(CC1)C2 [Example 53] | 1.9 | 162 | – | – |
| C=CC(=O)N1CC[C@@H](n2cc(-c3cnc4ccccc4c3)c3c(N)ncnc32)C1 [Comparative Example A, (R)-1-(3(4-Amino-5-(quinolin-3-yl)-7H-pyrrolo[2,3-d]pyrimidin-7-yl)pyrrolidin-1-yl) -prop-2-en-1-one, reference compound] | 1.6 | – | 3660 | – |
| C#Cc1c(-c2cnc3ccccc3c2)c2c(N)ncnc2n1C12CCC(NC(=O)[C@@H]3CN(C)CCO3)(CC1)C2 [Example 63, (S)-N-(4-(4-Amino-6-ethynyl-5-(quinolin-3-yl)-7H-pyrrolo[2,3-d]pyrimidin-7-yl) -bicyclo[2.2.1]heptan-1-yl)-4-methylmorpholine-2-carboxamide] | – | 73 | – | 2.8 |
| C#Cc1c(-c2cnc3ccccc3c2)c2c(N)ncnc2n1C12CCC(NC(=O)c3nccn3C)(CC1)C2 [Example 23, N-(4-(4-Amino-6-ethynyl-5-(quinolin-3-yl)-7H-pyrrolo[2,3-d]pyrimidin-7-yl)bicyclo-[2.2.1]heptan-1-yl)-1-methyl-1H-imidazole-2-carboxamide] | 1.4 | 31 | – | – |
| C#Cc1c(-c2cnc3ccccc3c2)c2c(N)ncnc2n1C12CCC(NC(=O)c3cncnc3)(CC1)C2 [Example 2, N-(4-(4-Amino-6-ethynyl-5-(quinolin-3-yl)-7H-pyrrolo[2,3-d]pyrimidin-7-yl)bicyclo-[2.2.1]heptan-1-yl)pyrimidine-5-carboxamide] | 0.52 | – | 20 | – |
| C#Cc1c(-c2cnc3ccccc3c2)c2c(N)ncnc2n1C12CCC(NC(=O)c3ncco3)(CC1)C2 [Example 46] | 0.79 | – | 19 | – |
| C#Cc1c(-c2cnc3ccccc3c2)c2c(N)ncnc2n1C12CCC(N3CCOCC3)(CC1)C2 [Example 9, 6-Ethynyl-7-(4-morpholinobicyclo[2.2.1]heptan-1-yl)-5-(quinolin-3-yl)-7H-pyrrolo[2,3-d]pyrimidine-4-amine] | 2.6 | 59 | – | – |
| C#Cc1c(-c2cnc3ccccc3c2)c2c(N)ncnc2n1C12CCC(NC(=O)c3ccnn3C3CC3)(CC1)C2 [Example 20, N-(4-(4-Amino-6-ethynyl-5-(quinolin-3-yl)-7H-pyrrolo[2,3-d]pyrimidin-7-yl)bicyclo-[2.2.1]heptan-1-yl)-1-cyclopropyl-1H-pyrazole-5-carboxamide] | 2.1 | 31 | – | – |
| C#Cc1c(-c2cnc3ccccc3c2)c2c(N)ncnc2n1[C@@H]1CCN(C(=O)C=C)C1 [Comparative Example B, (R)-1-(3-(4-Amino-6-ethynyl-5-(quinolin-3-yl)-7H-pyrrolo[2,3-d]pyrimidin-7-yl) -pyrrolidin-1-yl)-prop-2-en-1-one, reference compound] | 0.95 | – | 1080 | – |
| C#Cc1c(-c2cnc3ccccc3c2)c2c(N)ncnc2n1C12CCC(CNC(=O)c3cnc(C)cn3)(CC1)C2 [Example 14, N-((4-(4-Amino-6-ethynyl-5-(quinolin-3-yl)-7H-pyrrolo[2,3-d]pyrimidin-7-yl)bicyclo-[2.2.1]heptan-1-yl)methyl)-5-methylpyrazine-2-carboxamide] | 1.7 | – | 204 | – |
